Assay results taken from paper PMC8840040, “Pharmacokinetic Characterization of the DDAH1 Inhibitors ZST316 and ZST152 in Mice Using a HPLC-MS/MS Method” (Molecules, 2022).

Tests used:
[1] = tested on: cancer cells; conditions: cited from earlier work; for degradation in the culture media: culture media of cancer cell experiments
[2] = Stability in mouse plasma and urine; assay type: in vitro ADME; conditions: for stability in urine stored frozen: mice urine, −20 °C
Description: The extraction recovery, established on QCs at the concentrations of LLOQ (i.e., 5 ng/mL), at 15 and 250 ng/mL, fell in the range 88.9%–94.6% and 87.9%–117.5% for ZST316 and ZST152, respectively. The LLOQ in plasma was 5.0 ng/mL for both compounds, with precision of 7.1% and 4.1% and accuracy of 95.8% and 106.1% (n = 6) for ZST316 and ZST152, respectively (Table 1). We decided to validate this value as LLOQ even though the limit of detection (LOD) reached in the initial set up phase of the methods was established for both compounds at 1 ng/mL (S/N > 4.0). However, such sensitivity was not required as the expected range of activity (IC50) was markedly higher than the LLOQ value for both compounds. The linearity of the method, evaluated over three different analytical runs in the concentration range 5.0–500.0 ng/mL, was acceptable for both analytes, with an average coefficient of determination (R^2) of 0.990 and 0.992 for ZST316 and ZST152, respectively. […] Both ZST316 and ZST152 were stable in frozen plasma for at least one month at −20 °C. No chromatographic carry-over effect was observed injecting a blank sample after the highest standard calibration point. The method was considered suitable for preclinical pharmacokinetic investigations.
Both ZST316 and ZST152 were stable at 37 °C in mice urine for at least 24 h and stored frozen at −20°C for one month. No chromatographic carry-over effect was observed injecting a blank sample after the highest standard calibration point.

[3] = tested on: triple-negative breast cancer cells; conditions: cited from earlier work; for suppression of vasculogenic mimicry: in vitro, triple-negative breast cancer cells
[4] = Urinary metabolites in 24 h urine by HPLC-MS/MS; assay type: in vivo, FVB mice
Description: The assessment of the urinary elimination after oral and intravenous administration, in the urine fraction collected 24 h post dose, is reported in Table 6. […] To further investigate this issue, we searched for the presence of urinary metabolites in the 24 h urine samples in one mouse per treatment group. We identified at least eight molecules most likely originating from the parent compounds (Table 7; see Supplementary Figure S1 for the hypothesized structures).
Mice were treated with ZST316 and ZST152 using a dose of 60 mg/Kg (oral gavage) and 30 mg/Kg (intravenous bolus). For pharmacokinetic sampling, blood was collected at 15 and 30 min, and 1, 3, 8, and 24 h post dose. Three mice were analyzed per each time point. After the animals were anesthetized with isoflurane, the blood was drained from the retro-orbital plexus into heparinized tubes, and then centrifuged for 10 min at 4000× g at 4 °C to separate plasma. A 24-h urine fraction was collected in three mice for each drug and route of administration. Plasma and urine samples were stored at −20 °C until analysis by HPLC-MS/MS.
[…] chromatography was performed using a series 200 HPLC system (Perkin Elmer, Waltham, MA, USA) under gradient conditions with separation on a HILIC column, 3 µm, 100 A, 2.1 × 150 mm (Waters, Milford, MA, USA), coupled with a 3 µm, 3.9 × 5.0 mm guard column of the same material at the flow rate of 0.2 mL/min. Gradient features: 10% mobile phase (MP) A (NH4HCO2 10 mM, 10% CH3CN, 0.1% HCOOH) and 90% MP B (CH3CN, 0.1% HCOOH) as the initial constant condition; then to 90% MP A in 6 min and the constant condition for 1.5 min. Return to the start condition in 0.5 min and conditioning for 5.5 min. Total run time: 13.5 min. Mass spectrometric detection was performed using an API 4000 triple quadrupole mass spectrometer (SCIEX, Framingham, MA, USA) supplied with a Turbo Ion Spray source set at 350 °C and −4200 V, analyzing biological samples with electrospray ionization (ESI) operating in negative ion mode. Purified air was used as nebulizer gas (Gas 1) and heater gas (Gas 2) and N2 was used as curtain gas and collision activated dissociation gas. They were set to 40, 50, 20, and 4 instrument units (psi), respectively. The declustering potential (DP) was set at −119 V and the collision exit potential (CXP) at –10 V. All parameters of the source were defined by direct infusion of ZST316 and ZST152 1 µg/mL in mobile phase B. The final quantification was carried out in Selected Reaction Monitoring (SRM) with the following transitions: m/z 307.9 → 208.0 (collision energy of −29.5 eV) for ZST316 and m/z 271.9 → 170.9 (collision energy −24.7 eV) for ZST152 (Figure 2 and Figure 3). Data were processed with the software package Analyst 1.6.2 (AB SCIEX).

[5] = tested on: human recombinant DDAH1; design: method as in PMID 26420019; conditions: cited from earlier work; for IC50 / Ki: human recombinant DDAH1 expressed in HEK293T cells; for IC50: read-out: IC50 towards DDAH1; for Ki: read-out: Ki towards DDAH1
[6] = after intravenous ZST152, total dose 1.410 mg, mouse #1, 24 h urine
[7] = after oral ZST152, total dose 1.158 mg, mouse #3, 24 h urine
[8] = after intravenous ZST316, total dose 1.326 mg, mouse #1, 24 h urine
[9] = after oral ZST316, total dose 1.308 mg, mouse #3, 24 h urine

| SMILES | penetration of the cell membrane of cancer cells and intracellular DDAH1 inhibition [1] | degradation in the culture media [1] | stability in mice urine at 37 °C [2] | stability in urine stored frozen [2] | suppression of vasculogenic mimicry [3] | % of Dose recovered in urine [4, 6] | Amount Recovered in urine [4, 6] | % of Dose recovered in urine [4, 7] | Amount Recovered in urine [4, 7] | IC50 [5] | Ki [5] | suppression of in vitro vasculogenic mimicry and migration ([3]; MDA-MD-231 cells, ref recent demonstration by our group) | % of Dose recovered in urine [4, 8] | Amount Recovered in urine [4, 8] | % of Dose recovered in urine [4, 9] | Amount Recovered in urine [4, 9] | greater inhibitory activity towards DDAH1 compared to reference inhibitor L-257 ([5]; vs L-257) |
| --- | --- | --- | --- | --- | --- | --- | --- | --- | --- | --- | --- | --- | --- | --- | --- | --- | --- |
| COCCNC(=N)NCCC[C@H](N)c1noc(=O)[nH]1 [ZST152] | able to successfully penetrate the cell membrane of cancer cells and inhibit DDAH1 intracellularly | did not significantly degrade | at least 24 h | one | suppress vasculogenic mimicry | 10.5% | 148 µg | 6.5% | 75.0 µg | 18 µM | 7 µM | – | – | – | – | – | – |
| COCCNC(=N)NCCC[C@H](N)C(=O)NS(C)(=O)=O [ZST316] | able to successfully penetrate the cell membrane of cancer cells and inhibit DDAH1 intracellularly | did not significantly degrade | at least 24 h | one | suppress vasculogenic mimicry | – | – | – | – | 3 µM | 1 µM | suppresses in vitro vasculogenic mimicry and migration | 3.1% | 41.2 µg | 2.2% | 28.9 µg | 13 fold |
